Laboratory results reported in BigSolDB 2.1.

O=C(O)/C=C/c1ccc(O)cc1
solubility (mole fraction)
Settings | in acetone | in ethanol | in ethyl acetate | in isobutanol | in isopropanol | in methanol | in methyl acetate | in n-butanol | in n-propanol
293.15 K | 0.0383 | 0.0409 | 0.0113 | 0.0193 | 0.0294 | 0.036 | 0.0146 | 0.0323 | 0.0334
298.15 K | 0.0428 | 0.0456 | 0.0128 | 0.0226 | 0.0331 | 0.0395 | 0.0176 | 0.0371 | 0.0373
303.15 K | 0.0468 | 0.0507 | 0.0144 | 0.0256 | 0.0373 | 0.0438 | 0.0205 | 0.0432 | 0.0429
308.15 K | 0.0516 | 0.0552 | 0.0162 | 0.0295 | 0.0417 | 0.0484 | 0.0244 | 0.0503 | 0.0478
313.15 K | 0.0574 | 0.0614 | 0.0183 | 0.0332 | 0.0462 | 0.053 | 0.0292 | 0.0582 | 0.0525
318.15 K | 0.0619 | 0.0666 | 0.0205 | 0.0371 | 0.0511 | 0.0573 | 0.034 | 0.0647 | 0.0588
323.15 K | 0.0685 | 0.0725 | 0.0229 | 0.0425 | 0.0562 | 0.063 | 0.0394 | 0.0731 | 0.0652
328.15 K | 0.0756 | 0.0785 | 0.0256 | 0.0483 | 0.0617 | 0.0693 | 0.0457 | 0.0823 | 0.0714
333.15 K | 0.0825 | 0.0861 | 0.0286 | 0.0535 | 0.067 | 0.0757 | 0.0519 | 0.0924 | 0.0791
